Data: PubChem BioAssay (NCI)
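Tested at 5 concentrations; 48 h exposure; 96-well plates; endpoints linearly interpolated, else capped at highest concentration. GI50 = concentration required for 50% inhibition of growth. TGI: total growth inhibition.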

Legend:
Assay in all cases: NCI anticancer screen, dose series, 48 h
786-0 renal = tested on: 786-0 renal
A498 renal = tested on: A498 renal
A549 NSCLC = tested on: A549 NSCLC
ACHN renal = tested on: ACHN renal
BT-549 breast = tested on: BT-549 breast
CAKI-1 renal = tested on: CAKI-1 renal
CCRF-CEM leukemia = tested on: CCRF-CEM leukemia
COLO 205 colon = tested on: COLO 205 colon
DU-145 prostate = tested on: DU-145 prostate
EKVX NSCLC = tested on: EKVX NSCLC
HCC-2998 colon = tested on: HCC-2998 colon
HCT-116 colon = tested on: HCT-116 colon
HCT-15 colon = tested on: HCT-15 colon
HL-60(TB) leukemia = tested on: HL-60(TB) leukemia
HOP-62 NSCLC = tested on: HOP-62 NSCLC
HOP-92 NSCLC = tested on: HOP-92 NSCLC
HS 578T breast = tested on: HS 578T breast
HT29 colon = tested on: HT29 colon
IGROV1 ovarian = tested on: IGROV1 ovarian
K-562 leukemia = tested on: K-562 leukemia
KM12 colon = tested on: KM12 colon
LOX IMVI melanoma = tested on: LOX IMVI melanoma
M14 melanoma = tested on: M14 melanoma
MALME-3M melanoma = tested on: MALME-3M melanoma
MCF7 breast = tested on: MCF7 breast
MDA-MB-231 breast = tested on: MDA-MB-231 breast
MDA-MB-435 = tested on: MDA-MB-435
MOLT-4 leukemia = tested on: MOLT-4 leukemia
NCI-H226 lung = tested on: NCI-H226 lung
NCI-H23 lung = tested on: NCI-H23 lung
NCI-H460 lung = tested on: NCI-H460 lung
NCI-H522 lung = tested on: NCI-H522 lung
NCI/ADR-RES ovarian = tested on: NCI/ADR-RES ovarian
OVCAR-3 ovarian = tested on: OVCAR-3 ovarian
OVCAR-4 ovarian = tested on: OVCAR-4 ovarian
OVCAR-5 ovarian = tested on: OVCAR-5 ovarian
OVCAR-8 ovarian = tested on: OVCAR-8 ovarian
PC-3 prostate = tested on: PC-3 prostate
RPMI-8226 leukemia = tested on: RPMI-8226 leukemia
RXF 393 renal = tested on: RXF 393 renal
SF-268 CNS = tested on: SF-268 CNS
SF-295 CNS = tested on: SF-295 CNS
SF-539 CNS = tested on: SF-539 CNS
SK-MEL-2 melanoma = tested on: SK-MEL-2 melanoma
SK-MEL-28 melanoma = tested on: SK-MEL-28 melanoma
SK-MEL-5 melanoma = tested on: SK-MEL-5 melanoma
SK-OV-3 ovarian = tested on: SK-OV-3 ovarian
SN12C renal = tested on: SN12C renal
SNB-19 CNS = tested on: SNB-19 CNS
SNB-75 CNS = tested on: SNB-75 CNS
SR leukemia = tested on: SR leukemia
SW-620 colon = tested on: SW-620 colon
T-47D breast = tested on: T-47D breast
TK-10 renal = tested on: TK-10 renal
U251 CNS = tested on: U251 CNS
UACC-257 melanoma = tested on: UACC-257 melanoma
UACC-62 melanoma = tested on: UACC-62 melanoma
UO-31 renal = tested on: UO-31 renal

SMILES: Cc1cc2nc(CS)[nH]c2cc1C
- GI50 (786-0 renal): 17.7 µM
- TGI (786-0 renal): 34.3 µM
- GI50 (A498 renal): 18.9 µM
- TGI (A498 renal): > 100 µM
- GI50 (A549 NSCLC): 36.8 µM
- TGI (A549 NSCLC): > 100 µM
- GI50 (ACHN renal): 15.4 µM
- TGI (ACHN renal): 30.6 µM
- GI50 (BT-549 breast): 24.5 µM
- TGI (BT-549 breast): 66.5 µM
- GI50 (CAKI-1 renal): 16.9 µM
- TGI (CAKI-1 renal): 35.9 µM
- GI50 (CCRF-CEM leukemia): 5.44 µM
- TGI (CCRF-CEM leukemia): 75.1 µM
- GI50 (COLO 205 colon): 23.6 µM
- TGI (COLO 205 colon): 98.5 µM
- GI50 (DU-145 prostate): 20.8 µM
- TGI (DU-145 prostate): 48.5 µM
- GI50 (EKVX NSCLC): 25.1 µM
- TGI (EKVX NSCLC): > 100 µM
- GI50 (HCC-2998 colon): 22.9 µM
- TGI (HCC-2998 colon): 66.2 µM
- GI50 (HCT-116 colon): 14.9 µM
- TGI (HCT-116 colon): 29.4 µM
- GI50 (HCT-15 colon): 18.6 µM
- TGI (HCT-15 colon): 43.7 µM
- GI50 (HL-60(TB) leukemia): 12.4 µM
- TGI (HL-60(TB) leukemia): > 100 µM
- GI50 (HOP-62 NSCLC): 15.2 µM
- TGI (HOP-62 NSCLC): 30.7 µM
- GI50 (HOP-92 NSCLC): 18.8 µM
- TGI (HOP-92 NSCLC): 76.3 µM
- GI50 (HS 578T breast): 23.3 µM
- TGI (HS 578T breast): 85.5 µM
- GI50 (HT29 colon): 6.39 µM
- TGI (HT29 colon): 22.7 µM
- GI50 (IGROV1 ovarian): 16.7 µM
- TGI (IGROV1 ovarian): 34.1 µM
- GI50 (K-562 leukemia): 22.4 µM
- TGI (K-562 leukemia): 67.3 µM
- GI50 (KM12 colon): 15.8 µM
- TGI (KM12 colon): 32.2 µM
- GI50 (LOX IMVI melanoma): 12.7 µM
- TGI (LOX IMVI melanoma): 30.6 µM
- GI50 (M14 melanoma): 15.3 µM
- TGI (M14 melanoma): 36.8 µM
- GI50 (MALME-3M melanoma): 13.4 µM
- TGI (MALME-3M melanoma): 32 µM
- GI50 (MCF7 breast): 14.7 µM
- TGI (MCF7 breast): 31.2 µM
- GI50 (MDA-MB-231 breast): 20.2 µM
- TGI (MDA-MB-231 breast): 50 µM
- GI50 (MDA-MB-435): 14.4 µM
- TGI (MDA-MB-435): 28.7 µM
- GI50 (MOLT-4 leukemia): 2.85 µM
- TGI (MOLT-4 leukemia): 8.53 µM
- GI50 (NCI-H226 lung): 14 µM
- TGI (NCI-H226 lung): 28.7 µM
- GI50 (NCI-H23 lung): 28.8 µM
- TGI (NCI-H23 lung): > 100 µM
- GI50 (NCI-H460 lung): 18.7 µM
- TGI (NCI-H460 lung): 54.6 µM
- GI50 (NCI-H522 lung): 3.48 µM
- TGI (NCI-H522 lung): 19.4 µM
- GI50 (NCI/ADR-RES ovarian): 22.8 µM
- TGI (NCI/ADR-RES ovarian): 95.4 µM
- GI50 (OVCAR-3 ovarian): 14.4 µM
- TGI (OVCAR-3 ovarian): 27.9 µM
- GI50 (OVCAR-4 ovarian): 13.1 µM
- TGI (OVCAR-4 ovarian): 32 µM
- GI50 (OVCAR-5 ovarian): 21.4 µM
- TGI (OVCAR-5 ovarian): 43.5 µM
- GI50 (OVCAR-8 ovarian): 20.2 µM
- TGI (OVCAR-8 ovarian): 50.6 µM
- GI50 (PC-3 prostate): 16.1 µM
- TGI (PC-3 prostate): 46.4 µM
- GI50 (RPMI-8226 leukemia): 14.3 µM
- TGI (RPMI-8226 leukemia): 40.7 µM
- GI50 (RXF 393 renal): 17.5 µM
- TGI (RXF 393 renal): 31.6 µM
- GI50 (SF-268 CNS): 20.5 µM
- TGI (SF-268 CNS): 57.5 µM
- GI50 (SF-295 CNS): 5.35 µM
- TGI (SF-295 CNS): 25 µM
- GI50 (SF-539 CNS): 20.5 µM
- TGI (SF-539 CNS): 45 µM
- GI50 (SK-MEL-2 melanoma): 15.7 µM
- TGI (SK-MEL-2 melanoma): 34.7 µM
- GI50 (SK-MEL-28 melanoma): 15.5 µM
- TGI (SK-MEL-28 melanoma): 32.2 µM
- GI50 (SK-MEL-5 melanoma): 13.7 µM
- TGI (SK-MEL-5 melanoma): 27.2 µM
- GI50 (SK-OV-3 ovarian): 37.5 µM
- TGI (SK-OV-3 ovarian): > 100 µM
- GI50 (SN12C renal): 25.1 µM
- TGI (SN12C renal): 71.3 µM
- GI50 (SNB-19 CNS): 27.6 µM
- TGI (SNB-19 CNS): > 100 µM
- GI50 (SNB-75 CNS): 14.9 µM
- TGI (SNB-75 CNS): 33.9 µM
- GI50 (SR leukemia): 6.69 µM
- TGI (SR leukemia): 37.6 µM
- GI50 (SW-620 colon): 13 µM
- TGI (SW-620 colon): 30.9 µM
- GI50 (T-47D breast): 15.6 µM
- TGI (T-47D breast): 37.5 µM
- GI50 (TK-10 renal): 15 µM
- TGI (TK-10 renal): 29.7 µM
- GI50 (U251 CNS): 14 µM
- TGI (U251 CNS): 30 µM
- GI50 (UACC-257 melanoma): 20.9 µM
- TGI (UACC-257 melanoma): 54 µM
- GI50 (UACC-62 melanoma): 13.6 µM
- TGI (UACC-62 melanoma): 28.2 µM
- GI50 (UO-31 renal): 14.2 µM
- TGI (UO-31 renal): 28.1 µM
